# Assay results published in patent US6914052B2, “Selective anti-viral nucleoside chain terminators” (The Trustees of Boston College, priority 2001, dated 2005).
# Columns and labels:
# Type in all cases: biochemical
# Settings in all cases: single triphosphate offered to enzyme/primer/template complex, template dG; 37° C. for 45 min; denaturing PAGE
# [1] = molecular target: T1, human polymerase γ (Homo sapiens, UniProt P54098); assay: Primer extension / chain termination with human polymerase γ
# T1 sequence (P54098 1-1239): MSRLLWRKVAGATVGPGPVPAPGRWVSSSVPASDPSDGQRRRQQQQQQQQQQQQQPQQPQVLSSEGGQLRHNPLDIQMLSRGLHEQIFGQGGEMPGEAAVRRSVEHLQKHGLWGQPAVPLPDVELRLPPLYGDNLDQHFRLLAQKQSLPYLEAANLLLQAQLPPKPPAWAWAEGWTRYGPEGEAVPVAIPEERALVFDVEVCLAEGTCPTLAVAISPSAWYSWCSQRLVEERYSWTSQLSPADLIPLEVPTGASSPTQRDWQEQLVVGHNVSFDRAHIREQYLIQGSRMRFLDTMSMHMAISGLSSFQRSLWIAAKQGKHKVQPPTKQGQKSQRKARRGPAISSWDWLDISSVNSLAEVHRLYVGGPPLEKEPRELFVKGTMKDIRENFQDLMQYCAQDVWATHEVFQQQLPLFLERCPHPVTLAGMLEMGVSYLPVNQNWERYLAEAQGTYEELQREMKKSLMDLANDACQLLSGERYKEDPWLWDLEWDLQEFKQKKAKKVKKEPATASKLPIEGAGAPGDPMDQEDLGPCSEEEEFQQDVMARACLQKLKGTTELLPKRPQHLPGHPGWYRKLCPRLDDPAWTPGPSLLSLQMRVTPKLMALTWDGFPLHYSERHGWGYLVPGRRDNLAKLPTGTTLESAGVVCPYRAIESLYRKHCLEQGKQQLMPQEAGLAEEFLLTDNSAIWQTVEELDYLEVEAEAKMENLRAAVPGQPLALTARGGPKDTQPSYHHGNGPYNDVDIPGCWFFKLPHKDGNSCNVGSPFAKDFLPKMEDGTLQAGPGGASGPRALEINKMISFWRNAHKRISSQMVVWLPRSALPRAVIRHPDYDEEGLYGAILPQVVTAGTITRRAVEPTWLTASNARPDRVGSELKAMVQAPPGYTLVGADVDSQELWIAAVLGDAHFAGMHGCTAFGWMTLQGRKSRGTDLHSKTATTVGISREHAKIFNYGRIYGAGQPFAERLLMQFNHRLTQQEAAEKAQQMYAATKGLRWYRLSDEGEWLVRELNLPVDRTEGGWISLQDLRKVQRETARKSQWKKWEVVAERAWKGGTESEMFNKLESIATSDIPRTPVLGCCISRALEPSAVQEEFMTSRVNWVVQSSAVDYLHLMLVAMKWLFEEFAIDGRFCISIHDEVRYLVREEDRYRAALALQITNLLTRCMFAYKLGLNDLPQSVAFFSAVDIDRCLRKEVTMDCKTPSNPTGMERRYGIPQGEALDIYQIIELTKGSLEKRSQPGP
# Description: (§1) FIG. 13 illustrates the results for polymerases α and γ.
# (§2) The following buffers were used for each polymerase: DNA polmerase α, 50 mM Tris.HCl pH 8.0, 5 mM Mg(AcO)2, 1 mM DTT, 1 mM spermidine; DNA pol β 50 mM Tris.HCl pH 8.0, 10 mM MgCl2, 1 mM DTT; DNA Polymerase γ 50 mM Tris.HCl pH 7.5, 100 mM NaCl, 2.5 MM MgCl2; HIV RT 50 mM Tris.HCl pH 8.5, 10 mM MgCl2, 40 mM KCl, 1 mM DTT. Template, primer and the corresponding buffer were mixed and heated to 100° C. for 1 min, allowed to cool to room temperature then placed on ice for 30 min. Once the template and primer had been allowed to anneal the polymerase was added. The appropriate amount of template-primer mixture was added to a vial containing water and the NTP(s) at the desired concentration. Typical reaction volumes were 10 μL. The reactions were incubated at 37° C. for 45 min. The reactions were quenched using Na-EDTA, heated at 100° C. for 1 min, and then flash frozen in liquid N2. Primer extensions were analyzed by standard methods by denaturing Polyacrylamide Gel Electrophoresis (PAGE).
# (§3) Analytical polyacrylamide gel electrophoresis was performed using a 38×50 cm Sequi-Gen GT sequencing cell with a thickness of 0.4 mm and 15% monomer (acrylamide:bisacrylamide 19:1). Gels were run using 90 mM Tris-Borate 1 mM EDTA buffer (pH 8.3). Gels were imaged on Phosphorimager: 425 from Molecular Dynamics (Sunnyvale, Calif.).
# [2] = molecular target: HIV reverse transcriptase (Human immunodeficiency virus type 1 group M subtype B, UniProt P04585); assay: Primer extension / chain termination with HIV reverse transcriptase
# Excerpt: (§4) The nucleoside incorporation experiment for one of the modified nucleotide analog compounds of the present invention is illustrated in FIGS. 12 and 13. […] The first nucleoside added to the primer should be a C residue (coded by the G residue of the template). A single triphosphate of dC or the above analog is offered to the enzyme/primer/template complex. […] In the remaining lanes of the gel, experiments have been designed with only the analog dd2ApyTP present with the primer template complex.
# as §2, with “The reactions were quenched using Na-EDTA, heated at 100° C. for 1 min, and then flash frozen in liquid N2.” left out, “(PAGE). […]” for “(PAGE).”
# [3] = molecular target: T2, human polymerase α (Homo sapiens, UniProt P09884); assay: Primer extension / chain termination with human polymerase α
# T2 sequence (P09884 1-1462): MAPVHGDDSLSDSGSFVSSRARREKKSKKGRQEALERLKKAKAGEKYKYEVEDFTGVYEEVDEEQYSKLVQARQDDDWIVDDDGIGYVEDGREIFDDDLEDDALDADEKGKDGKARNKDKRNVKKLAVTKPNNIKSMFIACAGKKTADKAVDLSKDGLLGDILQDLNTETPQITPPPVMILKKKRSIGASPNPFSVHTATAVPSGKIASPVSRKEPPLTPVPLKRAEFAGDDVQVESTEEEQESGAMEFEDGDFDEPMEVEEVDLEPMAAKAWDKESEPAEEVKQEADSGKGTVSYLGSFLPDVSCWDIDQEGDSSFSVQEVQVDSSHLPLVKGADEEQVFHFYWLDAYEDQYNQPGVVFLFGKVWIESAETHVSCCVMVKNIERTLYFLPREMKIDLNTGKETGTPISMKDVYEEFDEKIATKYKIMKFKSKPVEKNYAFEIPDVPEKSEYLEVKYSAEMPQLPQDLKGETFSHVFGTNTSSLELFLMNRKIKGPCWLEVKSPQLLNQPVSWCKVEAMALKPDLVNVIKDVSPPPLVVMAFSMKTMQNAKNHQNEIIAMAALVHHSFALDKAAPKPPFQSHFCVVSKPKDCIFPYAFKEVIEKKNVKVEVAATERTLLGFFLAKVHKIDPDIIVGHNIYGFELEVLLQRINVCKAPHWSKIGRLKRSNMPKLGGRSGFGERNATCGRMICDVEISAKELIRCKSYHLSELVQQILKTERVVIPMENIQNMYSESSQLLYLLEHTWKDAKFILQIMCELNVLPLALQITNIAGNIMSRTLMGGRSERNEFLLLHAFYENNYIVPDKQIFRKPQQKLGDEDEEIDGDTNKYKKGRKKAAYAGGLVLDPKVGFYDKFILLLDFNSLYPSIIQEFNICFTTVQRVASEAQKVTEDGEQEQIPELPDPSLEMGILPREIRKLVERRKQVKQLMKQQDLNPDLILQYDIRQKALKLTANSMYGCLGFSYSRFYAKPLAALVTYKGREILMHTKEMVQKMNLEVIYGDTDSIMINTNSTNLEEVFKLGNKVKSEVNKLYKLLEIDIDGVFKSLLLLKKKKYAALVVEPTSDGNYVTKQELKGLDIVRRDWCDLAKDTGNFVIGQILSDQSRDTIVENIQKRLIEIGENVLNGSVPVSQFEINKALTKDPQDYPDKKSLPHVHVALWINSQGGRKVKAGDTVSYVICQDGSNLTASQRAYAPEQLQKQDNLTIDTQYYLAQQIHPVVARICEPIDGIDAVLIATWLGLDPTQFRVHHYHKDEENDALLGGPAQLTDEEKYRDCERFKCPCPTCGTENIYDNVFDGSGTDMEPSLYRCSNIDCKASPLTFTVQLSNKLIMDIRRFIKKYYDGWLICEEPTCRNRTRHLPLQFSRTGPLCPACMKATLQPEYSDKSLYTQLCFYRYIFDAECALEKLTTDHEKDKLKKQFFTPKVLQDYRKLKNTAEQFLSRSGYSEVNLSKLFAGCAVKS
# Description: as §1, §2, §3
# [4] = molecular target: human polymerase β (Homo sapiens, UniProt P06746); assay: Primer extension / chain termination with human polymerase β
# Excerpt: as §4
# as §2, with “The reactions were quenched using Na-EDTA, heated at 100° C. for 1 min, and then flash frozen in liquid N2.” left out, “(PAGE). […]” for “(PAGE).”
smiles,measurement,setting,value
Nc1ccn([C@H]2C[C@H](O)[C@@H](COP(=O)(O)OP(=O)(O)OP(=O)(O)O)O2)c(=O)n1 [dCTP],"incorporation of the triphosphate into the primer (primer extension, gel, FIG. 13 right)",[1],normal incorporation into the primer
same,"incorporation of the triphosphate into the primer (primer extension, gel, FIG. 12 left)",[2],two additions of the nucleoside
same,"incorporation of the triphosphate into the primer (primer extension, gel, FIG. 13 left)",[3],normal incorporation into the primer
same,"incorporation of the triphosphate into the primer (primer extension, gel, FIG. 12 right)",[4],incorporated by human polymerase β in the normal fashion
